One data set relates to DLD-1. In words: Antiproliferative activity against human DLD1 cells. The class given is functional.
The subject of the next data set is HeLa. The experiment in a line: Antiproliferative activity against human HeLa-S3 cells. In kind it is functional.
The subject of the next data set is MDA-MB-231. The experiment in a line: Antiproliferative activity against human […] cells. The class given is functional.
A further data set has as its system NALM-6. The experiment in a line: Antiproliferative activity against human Nalm6 cells. The class given is functional.
A further data set relates to HT-29. In words: Antiproliferative activity against human HT29 cells. In kind it is functional.
Data set [1] deals with HCT-116. The experiment in a line: Antiproliferative activity against human HCT116 cells. In kind it is functional.
The next data set has as its system PC-3. The experiment in a line: Antiproliferative activity against human PC3 cells. The class given is functional.
Data set [2] can be described thus: AUC in Balb/C mouse at 0.5 mg/kg, iv and 2 mg/kg, ip. The class given is ADME, organism-based. To be noted: plasma.
Data set [3] is described as follows: Bioavailability in Balb/C mouse at 0.5 mg/kg, iv and 2 mg/kg, ip. To be noted: in vivo. The class given is ADME, organism-based.
The next data set relates to BXPC-3. The experiment in a line: Antiproliferative activity against human BxPC3 cells. The class given is functional.
The next data set relates to P12-Ichikawa. In words: Antiproliferative activity against human P12 cells. In kind it is functional.
The subject of another data set is DU-145. The experiment in a line: Antiproliferative activity against human DU145 cells. The class given is functional.
Another data set has as its system A549. In words: Antiproliferative activity against human A549 cells. In kind it is functional.
Data set [4] can be described thus: Clearance in Balb/C mouse at 0.5 mg/kg, iv and 2 mg/kg, ip. The class given is ADME, organism-based. Particulars: in vivo; call rule not given here.
Data set [5] can be described thus: Alpha half life in Balb/C mouse at 0.5 mg/kg, iv and 2 mg/kg, ip. In kind it is ADME, organism-based. Particulars: in vivo.
Data set [6] in a line: Beta half life in Balb/C mouse at 0.5 mg/kg, iv and 2 mg/kg, ip. In kind it is ADME, organism-based. To be noted: in vivo, read-out: beta t1/2.
The test system of another data set is CWR22R. The experiment in a line: Antiproliferative activity against human CWR22Rv1 cells. In kind it is functional. To be noted: 22Rv1.
The test system of a further data set is A-375. In words: Antiproliferative activity against human A375 cells. The class given is functional.
The subject of the next data set is NCI-H1299. The experiment in a line: Antiproliferative activity against human H1299 cells. The class given is functional.
Another data set has as its system HT-1080. The experiment in a line: Antiproliferative activity against human HT1080 cells. The class given is functional.
The nature of data set [7]: Cmax in Balb/C mouse at 0.5 mg/kg, iv and 2 mg/kg, ip. In kind it is ADME, organism-based. To be noted: in vivo.
The test system of data set [8] is HCT-116. In words: Antitumor activity against human HCT116 cells transplanted in mouse at 2.5 mg/kg, ip. The class given is functional. Particulars: HCT-116, ip, route intraperitoneal, read-out: TGI.
The subject of data set [9] is Mus musculus. The experiment in a line: Toxicity in mouse at 1.25 mg/kg, ip assessed as loss of body weight. In kind it is organism-based. Also noted: dose 1.25 mg/kg, route intraperitoneal. To be noted: in vivo.
In data set [10] the test system is Mus musculus. In words: Toxicity in mouse at 2.5 mg/kg, ip assessed as loss of body weight. In kind it is organism-based. Also noted: dose 2.5 mg/kg, route intraperitoneal. To be noted: in vivo.
Data set [11] has as its system HCT-116. In words: Antitumor activity against human HCT116 cells transplanted in mouse at 1.25 mg/kg, ip. To be noted: HCT-116, ip, route intraperitoneal, read-out: TGI. The class given is functional.

What is called GI50 is the concentration giving 50% growth inhibition. A lower GI50 goes with greater sensitivity of the cells. The term AUC denotes concentration integrated over time. A lower AUC goes with less exposure. As usually defined, the bioavailability is the share of a dose that reaches the circulation, judged against a reference dose that is usually intravenous. The term Cmax denotes the highest concentration seen after dosing. For the compound `COc1c(C)c(OC)c2c(c1O)[C@@H]1[C@@H]3Cc4c(OC)c(C)c(OC)c(O)c4[C@H](CNC(=O)c4ccc5ccccc5n4)N3[C@@H](C#N)[C@H](C2)N1C`, the GI50 is 8.1 nM in the data set on DLD-1; 6.6 nM in the data set with HeLa; 4.5 nM with MDA-MB-231; 0.6 nM in the data set on NALM-6; 7.5 nM with HT-29; 5.8 nM in the data set on HCT-116 [1]. For the same compound, the GI50 turned out to be 6.2 nM in the data set on PC-3; 5.8 nM with BXPC-3; 1.9 nM with P12-Ichikawa; 6.9 nM in the data set on DU-145; 10.7 nM in the data set with A549; 1.1 nM with CWR22R. In addition, the values for the GI50 with A-375, in the data set with NCI-H1299 and in the data set on HT-1080 were 1.3 nM, 6.2 nM and 5 nM, respectively. Also, in data set [2], the AUC is 0.167 µM·h. In addition, the bioavailability in [3] was 46%. In [4], this compound registered a clearance of 72 mL/min/kg. Also, the half-life in data set [5] amounted to 3.5 min; in data set [6], 17 min. The highest level in data set [7] (Cmax) was 1100 nM.

In the data set with HCT-116 [1], `COc1c(C)c(OC)c2c(c1O)[C@@H]1[C@@H]3Cc4c(OC)c(C)c(OC)c(O)c4[C@H](CNC(=O)c4cc5cc(OC6CCOCC6)ccc5o4)N3C[C@H](C2)N1C` yielded a GI50 above 300 nM.

`COc1c(C)c(OC)c2c(c1O)[C@@H]1[C@@H]3Cc4c(OC)c(C)c(OC)c(O)c4[C@H](CNC(=O)c4ccc(CNS(=O)(=O)c5cccc6c(N(C)C)cccc56)cc4)N3[C@@H](C#N)[C@H](C2)N1C` returned a concentration for 50% growth inhibition (GI50) in the data set with HCT-116 [1] of 201 nM. This counts as sub-micromolar.

Regarding `COc1c(C)c(OC)c2c(c1O)[C@@H]1[C@@H]3Cc4c(OC)c(C)c(OC)c(O)c4[C@H](CNC(=O)c4cc5cc(OC6CCOCC6)ccc5o4)N3[C@@H](C#N)[C@H](C2)N1C`, the GI50 with DLD-1 was determined as 8.3 nM; in the data set with HCT-116 [1], 3.2 nM; in the data set on PC-3 it was 2.7 nM; with A549, 18.9 nM. In data set [2], this compound gave an AUC of 0.483 µM·h. In data set [3], the bioavailability was determined as 38%. In addition, the clearance in data set [4] stood at 45 mL/min/kg. Further, the half-life in data set [5] was found to be 3 min; in [6], 25 min. Also, the inhibition in vivo at 2.5 mg/kg in the data set with HCT-116 [8] worked out at 96%. The outcome with Mus musculus [9] and in the data set with Mus musculus [10] was Active. For the same compound, the inhibition in vivo at 1.25 mg/kg in the data set with HCT-116 [11] turned out to be 68%. This compound also displayed a Cmax in data set [7] of 3700 nM.

Regarding `COc1c(C)c(OC)c2c(c1O)[C@@H]1[C@@H]3Cc4c(OC)c(C)c(OC)c(O)c4[C@H](CNC(=O)c4cc5ccccc5o4)N3[C@@H](C#N)[C@H](C2)N1C`, it took 5.5 nM to inhibit growth in the data set on HCT-116 [1] by half (GI50). This lies in the single-digit nanomolar range.

On to `COC1=C(C)C(=O)C2=C(C1=O)[C@@H]1[C@@H]3CC4=C(C(=O)C(OC)=C(C)C4=O)[C@H](CNC(=O)c4cc5cc(OC6CCOCC6)ccc5o4)N3[C@@H](C#N)[C@H](C2)N1C`, for which the concentration for 50% growth inhibition (GI50) amounted to 26.5 nM with DLD-1, 17.3 nM in the data set with HCT-116 [1] and 16.5 nM in the data set on PC-3.

Consider `COc1c(C)c(OC)c2c(c1O)[C@@H]1[C@@H]3Cc4c(OC)c(C)c(OC)c(O)c4[C@H](CNC(=O)c4cc5cc(OCCN6CCOCC6)ccc5o4)N3[C@@H](C#N)[C@H](C2)N1C`, for which the GI50 in the data set on DLD-1 was 22.4 nM; in the data set with HCT-116 [1] it was 8.1 nM; with PC-3, 11.7 nM; in the data set with A549 it was 57.5 nM.

As to `COc1c(C)c(OC)c2c(c1O)[C@@H]1[C@@H]3Cc4c(OC)c(C)c(OC)c(O)c4[C@H](CNC(=O)c4cc5cc(OC6CCOCC6)ccc5o4)N3[C@@H](O)[C@H](C2)N1C`, the GI50 in the data set with DLD-1 worked out at 10.4 nM; with HCT-116 [1], 5.5 nM; with PC-3 it was 5 nM; with A549, 20.6 nM.

The values above are taken from ChEMBL document CHEMBL1149475, “Evaluation of antitumor properties of novel saframycin analogs in vitro and in vivo” (Bioorg Med Chem Lett, 2006).
